Reference: patent US10005733B2, “N-(4-hydroxy-4-methyl-cyclohexyl)-4-phenyl-benzenesulfonamide and N-(4-hydroxy-4-methyl-cyclohexyl)-4-(2-pyridyl)-benzenesulfonamide compounds and their therapeutic use” (PIMCO 2664 LIMITED, priority 2014, dated 2018)
pIC50: −log10 of the molar value.

Key:
[1] = Rodent Pharmacokinetics Studies; type: in vivo, rat; conditions: male Han Wistar rats; for i.v. AUC: 1 mg/kg intravenous, 5% DMSO/10% solutol in saline; for bioavailability: rat, plasma, 5 mg/kg, oral in 0.5% CMC/0.1% Tween-80, i.v. in 5% DMSO/10% solutol in saline, read-out: Bioavail, F (%)
Protocol: Absorption and metabolic stability were studied using an in vivo pharmacokinetics assay.
[…] […] For compound HMC-C-01-A the oral administration was formulated in 2% dimethylacetamide/20% hydroxypropyl-β-cyclodextrin in water. Animals were given free access to food throughout the study except for fasting overnight and until 2 hours post dose on the day of dosing.
Blood samples were taken from the retro-orbital plexus at the following time points and placed in microtubes containing 20% K2EDTA solution: […]
Blood samples were centrifuged to obtain plasma, which was transferred to a separate container and frozen at −20° C.
For analysis, samples were thawed at room temperature and prepared by protein precipitation with acetonitrile spiked with internal standard (500 ng/mL glipizide) in the ratio 1:4 with plasma. The samples were then vortexed for 5 minutes and centrifuged for 10 minutes at 20,600×g at 4° C. 100 μL of the supernatant was collected for analysis.
The pharmacokinetic parameters for the test compounds were calculated by Phoenix WinNonlin version 6.3 (Pharsight Corp, CA) using standard non-compartmental methods. Peak plasma concentrations (Cmax) and time of the peak plasma concentration (Tmax) were the observed values. The area under the plasma concentration-time curve (AUC) was determined by use of the linear trapezoidal rule up to the last measurable concentration (AUClast) and thereafter by extrapolation of the terminal elimination phase to infinity (AUCinf). The terminal elimination rate constant (kel) was determined by regression analysis of the linear terminal portion of the log plasma concentration-time curve. The elimination phase half-life (t1/2) was calculated as 0.693/kel.

[2] = system: J774 macrophages; test: Resazurin Macrophage J774 Viability Assay; type: cell-based; conditions: Mus musculus, J774, 72 h; footnote (1): 10 point range 30 μM to 1.5 nM, n = 3 per concentration, Grafit; 72 hour incubation
Protocol: Potency was assessed using a viability assay based on the survival of the J774 macrophage cell line. Macrophages are closely related to osteoclasts and have been used previously as a model system for osteoclast survival (see, e.g., Luckman et al., 1998, “Heterocycle-containing bisphosphonates cause apoptosis and inhibit bone resorption by preventing protein prenylation: evidence from structure-activity relationships in J774 macrophages,” J. Bone Miner. Res., Vol. 13, pp. 1668-1678). The model is indicative both of effects on bone protection in diseases such as osteoporosis, osteoarthritis and rheumatoid arthritis, and of effects on inflammation since, like osteoclasts, J774 macrophages are dependent for survival on continued NFκB activation.
In vitro potency of test compounds was determined by incubation with J774 macrophages and subsequent determination of cell viability using resazurin.
Resazurin is a redox dye commonly used as an indicator of viability in cultured cells (see, e.g., Anoopkumar-Dukie, 2005, “Resazurin assay of radiation response in cultured cells”, British Journal of Radiology, Vol. 78, pp. 945-947). It is non-toxic to cells and stable in culture medium, allowing continuous measurement of cell proliferation in vitro as either a kinetic or endpoint assay. The assay is based on the ability of viable, metabolically-active cells to reduce resazurin (which is blue and non-fluorescent) to resorufin and dihydroresorufin (which are red and fluorescent) using electrons from reducing species, such as nicotinamide […] and flavin adenine dinucleotide (FADH). This transformation, from oxidised form to reduced form, can be measured either colorimetrically or fluorometrically. Insults that impair cell viability and proliferation also affects the capacity of cells to reduce resazurin, and the rate of dye reduction is directly proportional to the number of viable cells present.
For fluorescence measurements, 530-560 nm excitation and 590 nm emission wavelengths are typically used. For colorimetric measurements, absorbance at 570 nm (reduced form) and 600 nm (oxidised form) is typically measured. A simple calculation is performed to determine the relative quantities of the two species: a high ratio of resorufin (the reduced form) to resazurin (the oxidised form) is an indicator that cells are proliferating and viable. A low ratio indicates cells that are quiescent or non-viable.
J774 cells were plated at 10^4 cells per well in 100 μL αMEM (α Modified Eagle Medium) in 96-well plates and allowed to adhere overnight. The following day, test compounds were prepared as 100 mM solutions in DMSO. These stock solutions were diluted in DMSO and then diluted 1000× in culture medium (αMEM) before being added directly to the wells so as to give the desired final compound concentration. After a 72 hour incubation at 37° C./5% CO2, resazurin (Alamar Blue, Biosource International) was added to each well (1:10 v/v, 10 μL). The plate was then incubated at 37° C. for 3 hours and fluorescence was measured at 590 nm, with a 25 nm bandwidth.
The average results for each test compound were expressed as a percent (%) of the average control value reflecting cell viability. The average values across the concentrations tested were then plotted and an IC50 was calculated by fitting the data to a 4-parameter IC50 equation using either Graph Pad Prism software for Windows (Graph Pad Software, San Diego Calif. USA) or Grafit version 5 (Erithacus Software). Each experiment was repeated twice and the data are presented as the mean IC50 from both experiments.

[3] = system: human primary osteoclasts; test: Human Primary Osteoclastogenesis (TRAP-positive multinucleated cells from CD14+ monocytes); type: cell-based; conditions: 1 μM; compound added on Day 4 of monocyte differentiation
Protocol: In vitro potency of test compounds was determined by incubating them with human primary monocytes and assessing effects on the formation of mature osteoclasts.
The activity of the compounds in reducing the formation of human primary osteoclasts (osteoclastogenesis) was tested using monocytes derived from human whole blood. Monocytes, which are positive for the cell surface marker CD14, are part of the innate immune system found in the circulation. Peripheral blood monocytes differentiate to form several cell types, including osteoclasts. Human primary osteoclasts were […] macrophage colony-stimulating factor (M-CSF) and RANKL+10% foetal calf serum for approximately 6 days, with the exact duration depending on the individual donor of the cells.
When monocytes are cultured under the conditions described above, they form large, multinucleated cells (osteoclasts), which stain positively for tartrate-resistant acid phosphatase (TRAP). TRAP staining was performed between Days 5-6 of culture depending on the individual donor. Osteoclasts are identified as cells which stain positive for TRAP and contain more than 3 nuclei. Compounds which reduce the number of TRAP-positive cells reduce the formation of osteoclasts. The bisphosphonate compound, alendronate, which is used in the treatment of osteoporosis, is used as a positive control for reducing osteoclastogenesis in this assay.
Effects on osteoclast formation were assessed by staining for TRAP and counting cells containing more than three nuclei in each well under a microscope. This allows the absolute determination of cell number in each treated well.
PBMCs (peripheral blood mononuclear cells) were collected from healthy donors and isolated by centrifugation on a layer of Ficoll Paque (GE Healthcare, UK). Monocytes were then sorted from the PBMCs using an autoMACS Pro Separator (MiltenyiBiotec), which sorts cells depending on the markers present on their cell surface. The resulting CD14+ monocytes were resuspended in αMEM supplemented with 10% FCS, 25 ng/mL M-CSF and 100 ng/ml RANKL and added to a 48-well plate, which was then incubated for up to 6 days at 37° C./5% CO2. […] The medium was replenished every 2 days.
At the end of the culture period, the medium was removed from the cells and the cells were fixed at room temperature and then washed with phosphate-buffered saline. TRAP staining solution was then added and the cells incubated at 37° C. until a red colour had developed, after which the reaction was stopped by rinsing with water. The stained cells were air-dried and then photographed using a conventional microscope and the TRAP-positive multinucleated osteoclasts counted by two independent observers.
The average results (n=6) for each concentration of test compound were averaged between the two observers and then expressed as a fold change versus the average control value. The data were then plotted graphically using software from Grafit (Erithacus Software).

[4] = 5 mg/kg orally, 0.5% CMC/0.1% Tween-80

Row | i.v. AUC [1] | p.o. AUC (ng/mL/min) [1, 4] | bioavailability [1] | p.o. AUC [1, 4] | SMILES | pIC50 [2] | % reduction at 1 μM [3]
1 | 963 ng/mL/min | 4766 ^(4) ng/mL/min | 50% | – | Cc1cc(S(=O)(=O)NC2CCC(C)(O)CC2)ccc1-c1ccc(F)cc1F (single isomer, unassigned) [REF001, reference compound] | 7.30 | –
2 | – | – | – | – | NCCCC(O)(P(=O)(O)O)P(=O)(O)O [Alendronate, alendronate] | – | 12%
3 | 2142 ng/mL/min | – | 55% | 5927 ng/mL/min | O=S(=O)(N[C@H]1CC[C@H](O)CC1)c1ccc(-c2ncc(Cl)cc2Cl)cc1 [ABD836, reference compound] | 5.84 | –
